Reference: US20100041089A1, “IMPROVED METHOD FOR DETECTING CHEMICAL […]” (priority 2006, published 2010)

Tested on: yeast genes (expressed mRNA)
Assay: DNA chip measurement of expressed mRNA of yeast genes after culture with a toxic chemical substance
Type: cell-based, Saccharomyces cerevisiae S288C
Procedure: Yeast (Saccharomyces cerevisiae S288C (a SUC2mal mel gap2 CUP1)) were cultured at 25° C. on YPD medium (yeast extract 1%, polypeptone 2%, glucose 2%). One of toxic chemical substances was added to the cell at logarithmic growth phase, and the cell was further cultured for two hours. Cell was cultured without any chemical substance in the same condition, and was used as a control. Concentrations of the chemical substances were defined to inhibit the growth of the yeast but not lead to death.
After the completion of cultivation, the culture was centrifuged to collect the cells. To the cells, sodium acetate buffer (50 mM sodium acetate, 10 mM EDTA, 1% SDS) was added, and the mixture was shaken at 65° C. for five minutes, followed by returning to room temperature, and obtaining the supernatant, which procedure was repeated two times. To the supernatant, ½ amount of a solution of phenol/chloroform (1:1) was added, and the mixture was centrifuged to give a supernatant, an equal amount of chloroform was added, and the mixture was centrifuged to give a supernatant. To the supernatant, an equal amount of isopropanol containing 0.3 M sodium acetate was added, and the mixture was allowed to stand at room temperature for 30 minutes, after which the mixture was centrifuged to give sediment of the whole RNAs. Seventy % ethanol was added to the sediment, and the mixture was again centrifuged to give sediment, which was then dried and dissolved in water. mRNA was isolated from the whole RNAs as followings. In view of the fact that a poly A chain is attached to the 3′ terminus of mRNA, a polynucleotide having a poly T structure which was immobilized on the surface of latex beads was used to trap the mRNA, and then the mRNA was washed and eluted with spine column (Oligotex-dT30<Super>mRNA Purification Kit, Takara). Reverse transcription of the mRNA was conducted with a reverse transcriptase (Super Script II Reverse Transcriptase; catalogue No. 18064-014, GibcoBRL) using fluorescence-labeled nucleotides to give cDNAs that were introduced with Cy3-dUTP or Cy5-dUTP during the reverse transcription.
The labeled cDNAs were dissolved in TE buffer (10 mM Tris-HCl/1 mM EDTA, pH 8.0), and the solution was dropped on the DNA chip containing the whole genes of yeast (DNA Chip Research Inc. Japan) so that the cDNAs were hybridized on the DNA chip at 65° C. for over 12 hours. The fluoresces intensity of the DNA chip was read with a scanner, and the ratio relative to the fluorescence intensity resulting from the absence of chemical substance was estimated as the following, which is shown in Tables 1 to 9.
In the Tables, “Intensity” indicated in the rightmost column is a value of the level of expressed mRNA of each gene in control cells as divided by the average level of the expressions of the whole genes. A gene of which mRNA level is lower in control, and is higher in cases of addition of chemical substance, is especially useful in the detection of toxic substances.
Here, when a ratio of an amount of mRNA expressed in the presence of the chemical substance to an amount of mRNA expressed in the absence of the chemical substance is two or more, then it is considered significant.

CCCCC[C@H](O)CC(=O)CCc1ccc(O)c(OC)c1 [(13), Gingerol]
level of expressed mRNA in the presence of chemical substance / level in the absence of chemical substance (yeast gene YNL194C, cultured two hours with the chemical substance): 1.5
level of expressed mRNA in the presence of chemical substance / level in the absence of chemical substance (yeast gene YNL200C, cultured two hours with the chemical substance): 1.1
The level of expressed mRNA in the presence of chemical substance/The level of expressed mRNA in the absence of chemical substance (yeast gene YNL208W, cultured two hours with substance): 1.7
The level of expressed mRNA in the presence of chemical substance/The level of expressed mRNA in the absence of chemical substance (yeast gene YNL234W, cultured two hours with substance): 2.5
The level of expressed mRNA in the presence of chemical substance/The level of expressed mRNA in the absence of chemical substance (yeast gene YNL241C, cultured for two hours with substance): 4.9
level of expressed mRNA in the presence of chemical substance / level in the absence of chemical substance (yeast gene YNL253W, cultured two hours with the chemical substance): 1.1
level of expressed mRNA in the presence of chemical substance / level in the absence of chemical substance (yeast gene YNL276C, cultured two hours with the chemical substance): 1.5
level of expressed mRNA in the presence of chemical substance / level in the absence of chemical substance (yeast gene YNR051C, cultured two hours with the chemical substance): 2.1
level of expressed mRNA in the presence of chemical substance / level in the absence of chemical substance (yeast gene YOL026C, cultured two hours with the chemical substance): 1.2
The level of expressed mRNA in the presence of chemical substance/The level of expressed mRNA in the absence of chemical substance (yeast gene YOL030W, cultured two hours with the chemical substance): 1.7
The level of expressed mRNA in the presence of chemical substance/The level of expressed mRNA in the absence of chemical substance (yeast gene YOL036W, cultured two hours with substance): 2.5
The level of expressed mRNA in the presence of chemical substance/The level of expressed mRNA in the absence of chemical substance (yeast gene YOL039W): 0.1
The level of expressed mRNA in the presence of chemical substance/The level of expressed mRNA in the absence of chemical substance (yeast gene YOL084W, cultured two hours with substance): 6.4
The level of expressed mRNA in the presence of chemical substance/The level of expressed mRNA in the absence of chemical substance (yeast gene YOL120C): 0.1
level of expressed mRNA in the presence of chemical substance / level in the absence of chemical substance (yeast gene YOR022C, cultured two hours with the chemical substance): 1.7
level of expressed mRNA in the presence of chemical substance / level in the absence of chemical substance (yeast gene YOR087W, cultured two hours with the chemical substance): 1.2
level of expressed mRNA in the presence of chemical substance / level in the absence of chemical substance (yeast gene YOR138C, cultured two hours with the chemical substance): 1.8
The level of expressed mRNA in the presence of chemical substance/The level of expressed mRNA in the absence of chemical substance (yeast gene YOR152C, cultured two hours with substance): 7.4
The level of expressed mRNA in the presence of chemical substance/The level of expressed mRNA in the absence of chemical substance (yeast gene YOR153W): 11.8
The level of expressed mRNA in the presence of chemical substance/The level of expressed mRNA in the absence of chemical substance (yeast gene YOR173W, cultured two hours with substance): 3.8
The level of expressed mRNA in the presence of chemical substance/The level of expressed mRNA in the absence of chemical substance (yeast gene YOR187W, mitochondria-located protein gene, cultured two hours with substance): 0.7
level of expressed mRNA in the presence of chemical substance / level in the absence of chemical substance (yeast gene YOR253W, cultured two hours with the chemical substance): 0.5
level of expressed mRNA in the presence of chemical substance / level in the absence of chemical substance (yeast gene YOR267C, cultured two hours with the chemical substance): 1.4
level of expressed mRNA in the presence of chemical substance / level in the absence of chemical substance (yeast gene YOR325W, cultured two hours with the chemical substance): 0.6
The level of expressed mRNA in the presence of chemical substance/The level of expressed mRNA in the absence of chemical substance (yeast gene YOR382W, cultured two hours with substance): 1.7
The level of expressed mRNA in the presence of chemical substance/The level of expressed mRNA in the absence of chemical substance (yeast gene YOR385W, cultured two hours with the substance): 2.8
level of expressed mRNA in the presence of chemical substance / level in the absence of chemical substance (yeast gene YPL005W, cultured two hours with the chemical substance): 1.2
The level of expressed mRNA in the presence of chemical substance/The level of expressed mRNA in the absence of chemical substance (yeast gene YPL087W, cultured two hours with substance): 4.4
level of expressed mRNA in the presence of chemical substance / level in the absence of chemical substance (yeast gene YPL150W, cultured two hours with the chemical substance): 2.1
level of expressed mRNA in the presence of chemical substance / level in the absence of chemical substance (yeast gene YPL152W, cultured two hours with the chemical substance): 1.4
level of expressed mRNA in the presence of chemical substance / level in the absence of chemical substance (yeast gene YPL168W, cultured two hours with the chemical substance): 1.0
level of expressed mRNA in the presence of chemical substance / level in the absence of chemical substance (yeast gene YPL180W, cultured two hours with the chemical substance): 1.5
level of expressed mRNA in the presence of chemical substance / level in the absence of chemical substance (yeast gene YPL188W, cultured two hours with the chemical substance): 0.9
level of expressed mRNA in the presence of chemical substance / level in the absence of chemical substance (yeast gene YPL221W, cultured two hours with the chemical substance): 1.0
The level of expressed mRNA in the presence of chemical substance/The level of expressed mRNA in the absence of chemical substance (yeast gene YPL222W, cultured two hours with substance): 3.0
level of expressed mRNA in the presence of chemical substance / level in the absence of chemical substance (yeast gene YPL225W, cultured two hours with the chemical substance): 0.8
The level of expressed mRNA in the presence of chemical substance/The level of expressed mRNA in the absence of chemical substance (yeast gene YPR037C, mitochondria-located protein gene, cultured two hours with substance): 1.0
level of expressed mRNA in the presence of chemical substance / level in the absence of chemical substance (yeast gene YPR049C, cultured two hours with the chemical substance): 1.6
The level of expressed mRNA in the presence of chemical substance/The level of expressed mRNA in the absence of chemical substance (yeast gene YPR134W, mitochondria-located protein gene, cultured two hours with substance): 1.1
level of expressed mRNA in the presence of chemical substance / level in the absence of chemical substance (yeast gene YPR146C, cultured two hours with the chemical substance): 1.3
level of expressed mRNA in the presence of chemical substance / level in the absence of chemical substance (yeast gene YPR148C, cultured two hours with the chemical substance): 1.2
level of expressed mRNA in the presence of chemical substance / level in the absence of chemical substance (yeast gene YPR172W, cultured two hours with the chemical substance): 1.3
